Measurements from US8841301B2, “Selective NR2B antagonists” (Bristol-Myers Squibb Company, priority 2011, dated 2014).
Counter-ions that a name gives are not always drawn. Like-named read-outs stand apart in the source and are kept apart here.

Biological target: hNR2B (Homo sapiens, UniProt Q05586+Q13224)
Experiment: Electrophysiology NMDA receptor experiments: two electrode voltage-clamp in Xenopus laevis oocytes expressing GluN1/GluN2 subunits
Format: cell-based
Conditions: oocytes voltage clamped at −40 mV, 50 μM glutamate, 30 μM glycine
Procedure: Electrophysiology NMDA Receptor Experiments.
Stage V and VI oocytes were surgically removed from the ovaries of large, well-fed and healthy Xenopus laevis anesthetized with 3-amino-benzoic acid ethyl ester (3 gm/l). Clusters of isolated oocytes were incubated with 292 U/ml Worthington (Freehold, N.J.) type IV collagenase or 1.3 mg/ml collagenase (Life Technologies, Gaithersburg, Md.; 17018-029) for 2 hr in Ca^2+-free solution comprised of (in mM) 115 NaCl, 2.5 KCl, and 10 HEPES, pH 7.5, with slow agitation to remove the follicular cell layer. Oocytes were then washed in the same solution supplemented with 1.8 mM CaCl2 and maintained in Barth's solution comprised of (in mM): 88 NaCl, 1 KCl, 2.4 NaHCO3, 10 HEPES, 0.82 MgSO4, 0.33 Ca(NO3)2, and 0.91 CaCl2 and supplemented with 100 μg/ml gentamycin, 10 μg/ml streptomycin, and 10 μg/ml penicillin. Oocytes were manually defolliculated and injected within 24 hrs of isolation with 3-5 ng of human GluN1 subunit cRNA and 7-10 ng of human GluN2 cRNA subunit in a 50 nl volume, and incubated in Barth's solution at 18° C. for 2-7 d. Glass injection pipettes had tip sizes ranging from 10-20 microns, and were backfilled with mineral oil. cRNA was synthesized from linearized template cDNA for rat glutamate receptor subunits according to manufacturer specifications (Ambion).
Two electrode voltage-clamp recordings were made 2-7 days post-injection. Oocytes were placed in a dual-track plexiglass recording chamber with a single perfusion line that splits in a Y-configuration to perfuse two oocytes. Dual recordings were made at room temperature (23° C.) using two Warner OC725B two-electrode voltage clamp amplifiers, arranged as recommended by the manufacturer. Glass microelectrodes (1-10 Megaohms) were filled with 300 mM KCl (voltage electrode) or 3 M KCl (current electrode). The bath clamps communicated across silver chloride wires placed into each side of the recording chamber, both of which were assumed to be at a reference potential of 0 mV. Oocytes were perfused with a solution comprised of (in mM) 90 NaCl, 1 KCl, 10 HEPES, […] and 0.5 BaCl2; pH 7.4, adjusted by addition of NaOH. Oocytes were recorded under voltage clamp at −40 mV. Final concentrations for glutamate and glycine were 50 μM and 30 μM, respectively. Concentration-response curves for experimental compounds were obtained by applying in successive fashion maximal glutamate/glycine, followed by glutamate/glycine plus variable concentrations of experimental compounds. Dose response curves consisting of four to eight concentrations were obtained in this manner. The baseline leak current at −40 mV was measured before and after recording, and the full recording linearly corrected for any change in leak current. The level of inhibition by applied experimental compounds was expressed as a percent of the initial glutamate response, and averaged together across oocytes from multiple experiments. Results were pooled, and the average percent responses at antagonist concentrations were fit by the equation, Percent Response=(100−minimum)/(1+([conc]/IC50)^nH)+minimum where minimum is the residual percent response in saturating concentration of the experimental compounds, IC50 is the concentration of antagonist that causes half of the achievable inhibition, and nH is a slope factor describing steepness of the inhibition curve. […]
For NMDA receptor subtype selectivity experiments human GluN1/GluN2A, GluN1/GluN2C, and GluN1/GluN2D cRNAs were expressed in Xenopus laevis as described above. Here, 10 μM concentrations of the antagonist was perfused with 50 μM glutamate and 30 μM glycine onto the oocyte for two min and the remaining current in the presence of the antagonist was compared to the maximal current obtained with 50 μM glutamate and 30 μM glycine alone (defined as 100%). When IC50 determinations were made against other NMDA receptor subtypes the protocol as described above was followed. […]

Sequence of hNR2B (Q13224 27-1484, other chains not shown): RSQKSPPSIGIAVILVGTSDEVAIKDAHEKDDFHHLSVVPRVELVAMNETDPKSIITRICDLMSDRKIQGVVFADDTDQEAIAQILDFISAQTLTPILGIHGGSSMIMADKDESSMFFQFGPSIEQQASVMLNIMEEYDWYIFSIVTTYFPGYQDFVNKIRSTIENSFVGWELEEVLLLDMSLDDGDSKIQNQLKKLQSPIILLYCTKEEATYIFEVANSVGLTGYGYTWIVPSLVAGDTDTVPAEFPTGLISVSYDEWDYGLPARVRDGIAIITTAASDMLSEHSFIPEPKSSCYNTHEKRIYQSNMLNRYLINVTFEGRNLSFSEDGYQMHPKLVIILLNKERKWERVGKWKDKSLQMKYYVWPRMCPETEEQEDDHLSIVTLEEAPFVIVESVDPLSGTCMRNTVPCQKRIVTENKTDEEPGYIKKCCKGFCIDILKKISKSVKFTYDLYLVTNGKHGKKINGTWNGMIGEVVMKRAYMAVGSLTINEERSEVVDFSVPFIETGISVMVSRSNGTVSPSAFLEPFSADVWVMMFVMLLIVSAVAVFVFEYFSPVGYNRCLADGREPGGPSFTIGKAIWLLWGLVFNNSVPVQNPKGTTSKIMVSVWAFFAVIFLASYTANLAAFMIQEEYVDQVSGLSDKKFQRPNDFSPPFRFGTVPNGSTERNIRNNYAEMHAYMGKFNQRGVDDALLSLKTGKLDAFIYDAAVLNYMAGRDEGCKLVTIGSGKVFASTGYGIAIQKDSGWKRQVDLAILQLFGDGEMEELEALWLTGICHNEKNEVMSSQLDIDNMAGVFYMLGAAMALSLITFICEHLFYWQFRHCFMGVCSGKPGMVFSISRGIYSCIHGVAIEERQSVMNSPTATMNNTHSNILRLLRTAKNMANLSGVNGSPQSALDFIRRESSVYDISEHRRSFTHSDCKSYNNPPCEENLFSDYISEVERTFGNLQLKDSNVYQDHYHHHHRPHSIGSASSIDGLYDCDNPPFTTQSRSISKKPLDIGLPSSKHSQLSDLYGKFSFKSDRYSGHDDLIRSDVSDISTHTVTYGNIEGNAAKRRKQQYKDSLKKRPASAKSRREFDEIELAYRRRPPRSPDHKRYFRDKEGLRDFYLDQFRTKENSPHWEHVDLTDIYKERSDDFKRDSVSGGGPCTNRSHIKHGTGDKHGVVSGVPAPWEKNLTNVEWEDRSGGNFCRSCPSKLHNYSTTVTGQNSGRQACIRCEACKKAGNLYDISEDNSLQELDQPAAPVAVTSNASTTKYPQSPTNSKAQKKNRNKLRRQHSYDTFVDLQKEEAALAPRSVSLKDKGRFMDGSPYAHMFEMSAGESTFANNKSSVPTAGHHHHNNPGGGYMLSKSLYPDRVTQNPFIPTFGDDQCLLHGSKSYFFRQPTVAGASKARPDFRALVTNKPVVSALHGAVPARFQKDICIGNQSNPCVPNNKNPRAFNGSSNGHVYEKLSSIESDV

SMILES	IC50 (read-out: Rating (hNR2B IC50))	IC50 (read-out: hNR2B IC50)
FC(F)Oc1ccc(Nc2ncc(COc3ccc4[nH]ncc4c3)cn2)cc1 [Example 57]	< 200 nM	–
O=C1Nc2ccc(OCc3cnc(Nc4ccc(OC(F)F)cc4)nc3)cc2CO1 [Example 58]	< 200 nM	–
Oc1ccc(OCc2cnc(Nc3ccc(OC(F)F)cc3)nc2)nn1 [Example 59]	< 200 nM	–
FC(F)Oc1ccc(Nc2ncc(COc3ccc4[nH]cnc4c3)cn2)cc1 [Example 60]	< 200 nM	–
O=C1Nc2ccc(OCc3cnc(Nc4ccc(OC(F)(F)F)cc4)nc3)cc2CO1 [Example 61]	< 200 nM	–
FC(F)Oc1ccc(Nc2ncc(COc3cn[nH]c3)cn2)cc1 [Example 63]	< 200 nM	–
FC(F)(F)Oc1ccc(Nc2ncc(COc3ccc4[nH]ncc4c3Cl)cn2)cc1 [Example 64]	< 200 nM	–
Nc1nc2ccc(OCc3cnc(Nc4ccc(OC(F)F)cc4)nc3)cc2s1 [Example 65]	< 200 nM	–
FC(F)Oc1ccc(Nc2ncc(COc3ccc4[nH]ncc4c3Cl)cn2)cc1 [Example 66]	< 200 nM	–
Cc1cc(OCc2cnc(Nc3ccc(OC(F)(F)F)cc3)nc2)cc2cn[nH]c12 [Example 67]	< 200 nM	–
FC(F)(F)Oc1ccc(Nc2ncc(COc3ccc4[nH]nnc4c3)cn2)cc1 [Example 68]	< 200 nM	–
FC(F)Oc1ccc(Nc2ncc(COc3ccc4[nH]nnc4c3)cn2)cc1 [Example 69]	< 200 nM	–
Oc1ncc(OCc2cnc(Nc3ccc(OC(F)F)cc3)nc2)cn1 [Example 70]	< 200 nM	–
O=c1[nH]c2ccc(OCc3cnc(Nc4ccc(OC(F)(F)F)cc4)nc3)cc2s1 [Example 71]	< 200 nM	–
Fc1cc(Nc2ncc(COc3ccc4[nH]ncc4c3Cl)cn2)ccc1OC(F)F [Example 72]	< 200 nM	–
Cc1cc(Nc2ncc(COc3ccc4[nH]ncc4c3Cl)cn2)ccc1OC(F)F [Example 73]	< 200 nM	–
FC(F)Oc1ccc(Nc2ncc(COc3ccc4[nH]ncc4c3)cn2)cc1Cl [Example 75]	< 200 nM	–
Cc1cc(Nc2ncc(COc3ccc4[nH]ncc4c3)cn2)ccc1OC(F)F [Example 76]	< 200 nM	–
O=C1Nc2ccc(OCc3cnc(Nc4ccc(OC(F)F)c(Cl)c4)nc3)cc2CO1 [Example 77]	< 200 nM	–
Cc1cc(Nc2ncc(COc3cc4ccc(=O)[nH]c4cc3F)cn2)ccc1OC(F)F [Example 78]	< 200 nM	–

SMILES	IC50 (read-out: Rating (hNR2B IC50))	IC50 (read-out: hNR2B IC50)
FC(F)Oc1ccc(Nc2ncc(COc3cnc4[nH]ncc4c3)cn2)cc1 [Example 79]	< 200 nM	–
O=c1[nH]c2ccc(OCc3cnc(Nc4ccc(OC(F)(F)F)cc4)nc3)cc2o1 [Example 80]	< 200 nM	–
Cc1cc(Nc2ncc(COc3ccc4c(c3)COC(=O)N4)cn2)ccc1OC(F)F [Example 82]	< 200 nM	–
Cc1ccc(Nc2ncc(COc3ccc4c(c3)COC(=O)N4)cn2)cc1F [Example 83]	< 200 nM	–
O=C1Nc2ccc(OCc3cnc(Nc4ccc(OC(F)F)c(F)c4)nc3)cc2CO1 [Example 84]	< 200 nM	–
O=C1Cc2cc(OCc3cnc(Nc4ccc(OC(F)F)c(F)c4)nc3)ccc2N1 [Example 85]	< 200 nM	–
Cc1cc(Nc2ncc(COc3ccc4c(c3)CC(=O)N4)cn2)ccc1OC(F)F [Example 86]	< 200 nM	–
Cc1cc(Nc2ncc(COc3ccc(Nc4nccs4)cc3)cn2)ccc1OC(F)F [Example 87]	< 200 nM	–
O=c1ccc2cc(OCc3cnc(Nc4ccc(OC(F)F)c(Cl)c4)nc3)c(F)cc2[nH]1 [Example 88]	< 200 nM	–
FC(F)Oc1ccc(Nc2ncc(COc3cnc4[nH]ccc4c3)cn2)cc1Cl [Example 90]	< 200 nM	–
Fc1cc(Nc2ncc(COc3ccc(Nc4nccs4)cc3)cn2)ccc1OC(F)F [Example 91]	< 200 nM	–
FC(F)Oc1ccc(Nc2ncc(COc3ccc(Nc4nccs4)cc3)cn2)cc1Cl [Example 92]	< 200 nM	–
O=c1ccc2cc(OCc3ccnc(Nc4ccc(Cl)cc4)n3)ccc2[nH]1 [Example 93, 6-((2-(4-chlorophenylamino)pyrimidin-4-yl)methoxy)quinolin-2(1H)-one]	–	1250 nM
O=c1ccc2cc(OCc3ccnc(NCc4ccc(Cl)cc4)n3)ccc2[nH]1 [Example 94]	1000 to 10000 nM	–
O=c1ccc2cc(OCc3cc(Nc4ccc(Cl)c(Cl)c4)ncn3)ccc2[nH]1 [Example 95, 6-((6-(3,4-dichlorophenylamino)pyrimidin-4-yl)methoxy)quinolin-2(1H)-one trifluoroacetate]	–	36 nM
O=c1ccc2cc(OCc3cc(Nc4ccc(Cl)cc4)ncn3)ccc2[nH]1 [Example 96]	< 200 nM	–
O=c1ccc2cc(OCc3cc(NCc4ccc(Cl)c(Cl)c4)ncn3)ccc2[nH]1 [Example 97]	1000 to 10000 nM	–
O=c1ccc2cc(OCc3cnc(Nc4ccc(Cl)c(Cl)c4)cn3)ccc2[nH]1 [Example 98, 6-((5-(3,4-dichlorophenylamino)pyrazin-2-yl)methoxy)quinolin-2(1H)-one]	–	> 3000 nM
O=c1ccc2cc(OCc3cncc(Nc4ccc(Cl)cc4)n3)ccc2[nH]1 [Example 99]	1000 to 10000 nM	–
O=c1ccc2cc(OCc3cncc(NCc4ccc(Cl)cc4)n3)ccc2[nH]1 [Example 100]	201 to 1000 nM	–

SMILES	IC50 (read-out: Rating (hNR2B IC50))	IC50 (read-out: hNR2B IC50)
O=c1ccc2cc(OCc3cncc(NCc4ccc(Cl)c(Cl)c4)n3)ccc2[nH]1 [Example 101]	1000 to 10000 nM	–
O=c1ccc2cc(Oc3ccc(NCc4ccc(OC(F)(F)F)cc4)nn3)ccc2[nH]1 [Example 102, 6-(6-(4-(trifluoromethoxy)benzylamino)pyridazin-3-yloxy)quinolin-2(1H)-one]	–	4600 nM
FC(F)Oc1ccc(Nc2ncc(CCc3ccc4[nH]ncc4c3)cn2)cc1Cl [Example 104, 5-(2-(1H-indazol-5-yl)ethyl)-N-(3-chloro-4-(difluoromethoxy)phenyl)pyrimidin-2-amine]	–	183 nM
O=c1ccc2cc(CCc3cnc(Nc4ccc(OC(F)F)c(Cl)c4)nc3)ccc2[nH]1 [Example 105, 6-(2-(2-(3-chloro-4-(difluoromethoxy)phenylamino)pyrimidin-5-yl)ethyl)quinolin-2(1H)-one]	–	2.5 nM
Oc1ccc(CCc2cnc(Nc3ccc(OC(F)F)cc3)nc2)cc1 [Example 107, 4-(2-(2-((4-(difluoromethoxy)phenyl)amino)pyrimidin-5-yl)ethyl)phenol]	–	35 nM
O=c1ccc2cc(CCc3cnc(Nc4ccc(OC(F)(F)F)cc4)nc3)ccc2[nH]1 [Example 108]	< 200 nM	–
O=c1ccc2cc(CCc3cnc(Nc4ccc(OC(F)F)cc4)nc3)ccc2[nH]1 [Example 109]	< 200 nM	–
O=c1ccc2cc(C3CC3c3cnc(Nc4ccc(OC(F)F)cc4)nc3)ccc2[nH]1 (stereo not shown) [Example 110]	< 200 nM	–
FC(F)Oc1ccc(Nc2ncc(CCc3cccc4[nH]ncc34)cn2)cc1 [Example 111]	1000 to 10000 nM	–
FC(F)Oc1ccc(Nc2ncc(CCc3ccc4[nH]ncc4c3)cn2)cc1 [Example 112]	201 to 1000 nM	–
FC(F)Oc1ccc(Nc2ncc(CCc3ccc4cn[nH]c4c3)cn2)cc1 [Example 113]	> 10000 nM	–
FC(F)Oc1ccc(Nc2ncc(CCCNc3ncccn3)cn2)cc1 [Example 114]	> 10000 nM	–
FC(F)Oc1ccc(Nc2ncc(CCCNc3ncnc4[nH]ncc34)cn2)cc1 [Example 115]	> 10000 nM	–
FC(F)Oc1ccc(Nc2ncc(C3CC3c3cccc4[nH]ncc34)cn2)cc1 (stereo not shown) [Example 117]	> 10000 nM	–
CC(Cc1cnc(Nc2ccc(OC(F)F)cc2)nc1)c1ccc2[nH]c(=O)ccc2c1 (stereo not shown) [Example 122]	< 200 nM	–
N#Cc1n[nH]c2ccc(CCc3cnc(Nc4ccc(OC(F)F)cc4)nc3)cc12 [Example 124]	> 10000 nM	–
CCc1ccc(Nc2ncc(CCc3ccc4[nH]ncc4c3)cn2)cc1F [Example 125]	1000 to 10000 nM	–
CCc1ccc(Nc2ncc(CCc3ccc4[nH]c(=O)ccc4c3)cn2)cc1F [Example 126]	< 200 nM	–
